These results are taken from patent publication US20260053827A1, “Cannabidiol Solid Dosage Forms” (priority 2024, published 2026).

The conditions of the series: saturation solubility of CBD in the liquid lipid given as label; supernatant assayed.

Protocol: Each liquid lipophilic material was heated at 40° C. for 30 minutes in an oven before being combined with the CBD. 10 g of CBD was combined with 5 g of lipophilic material to create a saturated mixture. […] After agitation the solutions were centrifuged at 14800 rpm for 90 minutes to separate out any remaining undissolved CBD crystals. The resulting supernatant was sampled and assayed for CBD content to confirm the saturation solubility of the lipid.

As for `CCOCCOCCO` [Transcutol], the “CBD” value came out at 653.2 mg/g.
